These results are taken from patent publication US10258073B2, “Functional nutritional blend for thermo-metabolic performance” (priority 2016, dated 2019).

In the series the test system is Mouse 3T3-L1 pre adipocytes. Nature of the series: Cell viability by Sulforhodamine B (SRB) assay. The class given is cell-based. The conditions noted are these: 72 h. A general note: In SRB staining, fixed cells bind dye roughly in proportion to their protein.

Experimental: Cell culture: Mouse immortalised 3T3-L1 pre adipocytes were cultured in 5% CO2 at 37° C. in growth media consisting of Dulbecco's Modified Eagles Medium (DMEM) containing 10% heat-inactivated fetal calf serum with 40 μg/mL of gentamycin 5×10^3 cells were seeded per well in a 96 well plate and allowed to grow as a confluent monolayer.
Mouse 3T3-L1 pre adipocytes were cultured in DMEM containing 10% heat-inactivated foetal calf serum. 5000 cells were seeded in 96 well culture plates and allowed to form adhere and form a monolayer. Test compounds were added at different concentrations and incubated for 72 hours at 37° C. and 5% CO2. Cells were fixed using 10% trichloroacetic acid (TCA) solution at 4° C. for one hour. SRB solution (0.4%) was added to the wells and incubated for 30 minutes at room temperature. Excess dye was washed 5 times with 1% acetic acid. 100 μl of 10 mM trizma base was added to the wells to solubilize the SRB. Absorbance was read using a microplate reader at a wave length of 492 nm. The absorbance of cells with growth media was considered as 100% viable and percentage viability was calculated based on this reading.

`O=C(/C=C/C=C/c1ccc2c(c1)OCO2)N1CCCCC1` [Piperine] had a Non-toxic concentration of 25 µg/mL.
